In test [1] the test system is Acremonium strictum strain T1 gluco-oligosaccharide oxidase GOOX-T1. The settings on record: cited from earlier work.
Test [2] deals with T1, Acremonium strictum gluco-oligosaccharide oxidase GOOX-VN variant 1 Y300A, SEQ ID NO. 6 (Sarocladium strictum, UniProt D7PF15, A38V/S388N/Y300A).
T1 sequence (D7PF15 1-474 A38V/Y300A/S388N): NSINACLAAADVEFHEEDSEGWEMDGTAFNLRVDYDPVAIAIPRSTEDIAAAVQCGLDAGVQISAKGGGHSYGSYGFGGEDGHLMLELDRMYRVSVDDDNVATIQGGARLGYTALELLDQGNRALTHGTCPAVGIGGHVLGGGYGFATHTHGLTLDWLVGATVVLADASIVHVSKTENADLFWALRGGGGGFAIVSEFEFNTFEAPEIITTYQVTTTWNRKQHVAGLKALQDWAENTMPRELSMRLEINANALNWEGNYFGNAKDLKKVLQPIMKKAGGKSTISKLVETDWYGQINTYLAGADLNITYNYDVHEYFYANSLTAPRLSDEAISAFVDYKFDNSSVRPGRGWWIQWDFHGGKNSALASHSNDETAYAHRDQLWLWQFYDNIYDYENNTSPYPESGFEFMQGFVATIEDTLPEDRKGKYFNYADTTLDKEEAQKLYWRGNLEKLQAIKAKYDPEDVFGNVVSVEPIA
In words: Enzymatic assay, kinetic analysis (chromogenic H2O2 assay) of Y300A. To be noted: 37° C., pH 8.0.
Description: (§1) A chromogenic assay was used to measure hydrogen peroxide production (15). Reactions contained 0.1 mM 4aminoantipyrine (4AA), 1 mM phenol, 0.5 U horseradish peroxidase, 40 mM Tris-HCl (pH 8.0), and different substrates were initiated by adding 0.2 μg of enzymes to the 250 μL reaction mixture. The production of H2O2 was coupled to the oxidation of 4aminoantipyrine by horseradish peroxidase and detected at 500 nm. Reactions were incubated at 37° C. for 15 min to measure the specific activity of GOOX on 10 mM of monosaccharide or 1 mM of oligosaccharide.
(§2) At least 12 substrate concentrations were included to obtain kinetic parameters for each substrate. Initial rates were obtained by measuring reaction products every 30 s for 15 min at 37° C. and pH 8.0, and kinetic parameters were calculated using the Michaelis-Menten equation (GraphPad Prism5 Software).

Test [3] addresses T2, Acremonium strictum gluco-oligosaccharide oxidase GOOX-VN variant 2 Y300N, SEQ ID NO. 7 (Sarocladium strictum, UniProt D7PF15, A38V/S388N/Y300N).
T2 sequence (D7PF15 1-474 A38V/Y300N/S388N): T1 sequence (D7PF15 1-474 A38V/Y300A/S388N) with A300N
In words: Enzymatic assay, kinetic analysis (chromogenic H2O2 assay) of Y300N. To be noted: 37° C., pH 8.0.
Description: as §1, §2

Test [4] concerns Acremonium strictum gluco-oligosaccharide oxidase (GOOX). To be noted: oxidation of maltose, Fan et al. (2000); cited from earlier work.
Test [5] deals with T3, Acremonium strictum gluco-oligosaccharide oxidase GOOX-VN (type strain CBS 346.70, V38 and N388), SEQ ID NO. 2 (Sarocladium strictum, UniProt D7PF15, A38V/S388N).
T3 sequence (D7PF15 1-474 A38V/S388N): T1 sequence (D7PF15 1-474 A38V/Y300A/S388N) with A300Y
Nature of the test: Enzymatic assay, kinetic analysis (chromogenic H2O2 assay) of GOOX-VN. The settings on record: 37° C., pH 8.0.
Description: as §1, §2

Substitutions are numbered along the chain they refer to.

What is called kcat is the maximal rate divided by the concentration of active sites. For the compound `OC[C@H]1O[C@@H](O[C@H]2[C@H](O)[C@@H](O)[C@H](O[C@H]3[C@H](O)[C@@H](O)C(O)O[C@@H]3CO)O[C@@H]2CO)[C@H](O)[C@@H](O)[C@@H]1O` (stereo partly shown) [Cellotriose, cellotriose], the “catalytic efficiency (in words)” value in test [1] (native GOOX purified from A. strictum T1) is given as “highest”. In addition, the kcat in test [2] is 11.12 ± 0.158 s⁻¹; in test [3], 9.983 ± 0.0817 s⁻¹.
As for `OC[C@H]1O[C@H](O[C@H]2[C@H](O)[C@@H](O)C(O)O[C@@H]2CO)[C@H](O)[C@@H](O)[C@@H]1O` (stereo partly shown) [Maltose, maltose], the “Km, pH dependence” value in test [4] is listed as “highest at pH 9”. The kcat in test [1] (recombinant GOOX-T1) was 6.02 s⁻¹; in test [5], 6 ± 0.085 s⁻¹; in test [5] (listed as maltose), 6 s⁻¹.

The values are drawn from patent US20140057332A1, “GLUCO-OLIGOSACCHARIDE OXIDASES FROM ACREMONIUM STRICTUM AND USES THEREOF” (The Governing Council of the University of Toronto, priority 2011, published 2014).
